Experimental data taken from patent EP3502102A1, “STING INHIBITORS” (ECOLE POLYTECHNIQUE FEDERALE DE LAUSANNE (EPFL), priority 2017, dated 2019).

Assays:
STING [1] = target: T1, STING (Mus musculus, UniProt Q3TBT3); assay: IFN-beta luciferase reporter in HEK293T cells transfected with STING, alone or with a cyclic dinucleotide synthase; assay type: cell-based; parameters: expressed in transfected cells; host or cells: HEK293T
T1 sequence (Q3TBT3 1-378): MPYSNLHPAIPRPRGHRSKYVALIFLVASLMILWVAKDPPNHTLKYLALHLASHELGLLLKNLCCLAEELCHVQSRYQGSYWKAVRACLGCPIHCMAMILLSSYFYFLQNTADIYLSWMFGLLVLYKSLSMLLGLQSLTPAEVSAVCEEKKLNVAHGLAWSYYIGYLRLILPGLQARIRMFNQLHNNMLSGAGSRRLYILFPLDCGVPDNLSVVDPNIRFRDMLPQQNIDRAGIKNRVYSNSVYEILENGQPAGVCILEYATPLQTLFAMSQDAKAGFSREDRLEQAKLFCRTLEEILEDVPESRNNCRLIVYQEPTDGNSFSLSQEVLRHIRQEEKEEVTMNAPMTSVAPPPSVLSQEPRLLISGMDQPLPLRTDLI
Description: Reporter activity was measured 16 h after compound treatment. A nonlinear regression analysis was performed. […] Cytokine levels were normalized to DMSO-treated control cells. […] Nuclei were stained with DAPI. […] Depicted genes were measured by RT-qPCR. […] 16 h later Luciferase activity was measured. […] Flag-STING was immunoprecipitated and analysed by autoradiography.
HEK293T cells expressing murine STING with an N-terminal mCherry-tag ^28 were transfected using GeneJuice (Millipore) with a construct encoding for cyclic di-GMP synthase in conjunction with an IFN-• firefly luciferase reporter plasmid. 3 h after transfection cells were seeded in […] (Corning) coated with library compounds. For each compounds, a 40 nl volume was selected to obtain a concentration of 10 µM in the assay plates. The amount of DMSO in each well was normalised to 0.1%. After overnight treatment, cells were lysed in lysis buffer (25 mM Tris-phosphate (pH 7.8), 2 mM DTT, 2 mM 1,2-diaminocyclohexane-N,N,N',N'-tetraacetic acid, 10% glycerol, 1% Triton® X-100) for 20 min followed by the addition of firefly luciferase. Reporter activity was measured using a Tecan Infinite plate reader. The screen was performed using on ∼ 20.000 compounds from a chemically diverse compound collection available at the BSF core facility at EPFL.
In these cells, transient transfection of vectors encoding for cyclic di-GMP synthase (cdG-Syn) and an IFN-• reporter leads to robust induction of firefly luciferase activity. We used this system to perform a high-throughput chemical screen with a library of ∼ 20.000 small molecule compounds (Fig. 6b). To increase the selectivity of candidate compounds against the STING pathway, hits from the primary screen were counter-screened for their effect on RIG-I-driven activation of the IFN-• reporter. […] To further validate the two small molecules, we treated wild-type HEK293T cells with C-178 and C-176, in which STING was either expressed alone or in conjunction with cdG-Syn. […] We next conducted a limited structure-activity relationship (SAR) analysis. Since both C-178 and C-176 share a characteristic nitrofuran moiety, we prepared analogues of C-176/8 in which this structural motif was substituted (Fig. 1c).

STING [2] = target: T1, STING; assay: Blue native gel assay of STING clusters; assay type: cell-based; parameters: expressed in transfected cells; host or cells: HEK293T; settings: C-178, C-176 1 µM, 2-BP 50 µM; CMA 1.5 h
Description: (§1) Reporter activity was measured 16 h after compound treatment. A nonlinear regression analysis was performed. […] Circles indicate substitutes compared to C-176. d, e, Chemical compounds from (c) were tested at 0.5 µM for inhibitory activity in HEK293T cells transfected with STING (e) or RIG-I (f) in conjunction with IFN-• luciferase reporter, respectively. b, e, f, Values of inhibitor-treated cells were normalized to DMSO-treated cells. […] Cytokine levels were normalized to DMSO-treated control cells. A nonlinear regression analysis was performed for cGAMP stimulation. b, c, BMDMs were pre-treated with C-178 (0.25 µM) and stimulated with cGAMP, cyclic di-GMP, CMA, 90mer dsDNA or LPS for 3 h. The induction of Ifnb1 mRNA levels was assessed by RT-qPCR. d, Heatmaps of RNA sequencing analysis of BMDMs treated with DMSO or CMA and with or without addition of C-178. […] Reporter activity was measured 16 h after transfection and values were normalized to DMSO-treated control cells. c, BMDMs were treated with C-178 (0.25 µM) for 1 h, washed or left untreated and after an additional hour stimulated with cGAMP. […] Flag-STING was immunoprecipitated from whole cell lysate and analysed by autoradiography. In parallel, cell lysates were analysed by immunoblotting for p-TBK1 and STING. d, HEK293T cells expressing STING were treated as indicated (C-178 (1 µM)) and stimulated with CMA for 1.5 h. […]

TLR-4 = target: T2, TLR-4 (Mus musculus, UniProt Q9QUK6); assay: Ifnb1 mRNA (RT-qPCR) in BMDMs stimulated with LPS (control); assay type: cell-based; settings: 0.25 µM
T2 construct: endogenous in cells; host or cells: BMDMs from wild type mice
T2 sequence (Q9QUK6 26-835): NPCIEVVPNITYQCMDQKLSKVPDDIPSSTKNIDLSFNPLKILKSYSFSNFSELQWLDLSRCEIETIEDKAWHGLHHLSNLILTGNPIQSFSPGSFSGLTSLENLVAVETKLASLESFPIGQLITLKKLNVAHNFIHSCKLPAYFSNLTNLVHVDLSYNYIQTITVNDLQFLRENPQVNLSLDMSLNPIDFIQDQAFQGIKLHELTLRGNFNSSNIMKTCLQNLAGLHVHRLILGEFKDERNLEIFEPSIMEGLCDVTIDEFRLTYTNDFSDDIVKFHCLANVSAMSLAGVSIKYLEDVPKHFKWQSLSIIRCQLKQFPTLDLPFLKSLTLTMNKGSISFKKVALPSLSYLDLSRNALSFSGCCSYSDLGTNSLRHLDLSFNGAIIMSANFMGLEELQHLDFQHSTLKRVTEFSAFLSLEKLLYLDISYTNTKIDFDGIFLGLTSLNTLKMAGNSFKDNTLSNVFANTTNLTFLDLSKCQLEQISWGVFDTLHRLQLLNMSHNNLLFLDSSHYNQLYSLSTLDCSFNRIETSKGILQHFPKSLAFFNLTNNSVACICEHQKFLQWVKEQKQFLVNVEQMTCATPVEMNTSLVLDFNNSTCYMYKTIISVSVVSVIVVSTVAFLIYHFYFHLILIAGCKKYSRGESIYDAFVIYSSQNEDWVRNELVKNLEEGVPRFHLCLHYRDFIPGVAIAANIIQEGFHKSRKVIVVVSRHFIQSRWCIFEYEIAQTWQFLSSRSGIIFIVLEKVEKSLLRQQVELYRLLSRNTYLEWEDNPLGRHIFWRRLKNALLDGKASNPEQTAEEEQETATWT
T2 sequence (Q9JHF9 19-160 partner): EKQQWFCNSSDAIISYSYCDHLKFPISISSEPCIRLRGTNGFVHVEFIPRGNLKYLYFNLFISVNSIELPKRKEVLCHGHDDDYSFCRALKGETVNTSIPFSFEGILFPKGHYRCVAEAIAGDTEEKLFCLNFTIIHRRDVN
Description: as §1

BMDMs = assay: RNA sequencing of BMDMs with or without CMA; assay type: cell-based, mouse; settings: pre-treatment with C-178, CMA
Description: as §1

[3] = target: T3, hsSTING(AA1-138)-mmSTING(AA138-378) (UniProt Q3TBT3+Q86WV6); assay: IFN reporter in HEK293T cells, chimeric construct 1; assay type: cell-based; settings: reversed construct (human N-terminal, mouse C-terminal part); 0.5 µm
T3 construct: hsSTING(AA1-138)-mmSTING(AA138-378); expressed in transfected cells; host or cells: HEK293T
Description: as §1

STING [4] = target: T1, STING; assay: Type I IFN bioassay of BMDMs stimulated with cGAMP; assay type: cell-based; parameters: endogenous in cells; host or cells: BMDMs from wild type mice; settings: BMDMs pre-treated, 0.02 µM- 2.5 µM, read-out: calculated IC50, production of type I IFNs
Description: as §1

T3 sequence (Q86WV6 1-138, one chain of several): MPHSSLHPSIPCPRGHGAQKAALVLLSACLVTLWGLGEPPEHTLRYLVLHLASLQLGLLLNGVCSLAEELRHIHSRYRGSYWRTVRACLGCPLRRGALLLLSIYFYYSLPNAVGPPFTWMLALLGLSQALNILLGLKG

O=C(Nc1ccc(I)cc1)c1ccco1 [C-176-009]
inhibitory capacity against STING (STING [1]; derivatives tested at 0.5 µM, HEK293T transfected with STING): inactive

CCCCCCCCCCCCCCC(Br)C(=O)O (centres unmarked) [2-bromopalmitate, reference compound]
assembly of STING clusters (STING [2]): blocked

O=C(Nc1ccc2c(c1)oc1ccccc12)c1ccc([N+](=O)[O-])o1 [C-178, N-dibenzo[b,d]furan-3-yl-5-nitro-2-furamide]
activity against the TLR-4 agonist LPS (TLR-4): not active
significantly affected induced expression, number of the 500 most up-regulated genes after CMA (BMDMs): 498
significantly affected induced expression, share of the 500 most up-regulated genes after CMA (BMDMs): 99.6%
IFN reporter activity of chimeric construct [3]: inactive
half-maximal inhibitory concentration (IC50) values, IFN-• reporter activity (STING [1]; wild-type HEK293T, STING expressed alone or in conjunction with cdG-Syn, 0.01-5µM, 16 h): nanomolar
IC50 (STING [4]): ~23 nM
